Results: patent publication US5869479A, “Treatment of upper airway allergic responses” (Schering Corporation, priority 1997, dated 1999)

Legend:
nasal airway resistance = assay: Nasal airway resistance (NAR) in anesthetized cats after aerosolized Compound 48/80 challenge; format: in vivo
Description: (§1) Adult cats are anesthetized with intraperitoneal injections of sodium pentobarbital. The right femoral artery and vein are cannulated for measurement of blood pressure with a pressure transducer, and for the administration of drugs. The animals are paralyzed with intravenous gallamine triethiodide and subsequently mechanically ventilated with room air, using an animal ventilator. After isolation of the cervical […], a cuffed endotracheal tube is advanced rostrally into the posterior nasopharynx and inflated to form an air-tight seal, allowing continuous measurement of pressure changes within the nasal cavity. The right nasal airway is occluded with dental impression compound, and humidified air is passed through the left nasal airway at about 1.7 liters per minute. By means of pressure transducers, nasal airway pressure and insufflation pressure can be derived and electronically recorded.
The known histamine releaser "Compound 48/80" (the condensation product of N-methyl-p-methoxyphenethylamine with formaldehyde, sold by Sigma Chemical Company, St. Louis, Mo., USA), as a 1.0 percent solution in 0.9 percent aqueous saline solution, is aerosolized into the air stream for 2 minutes to induce an increased NAR. This effect is used to study the decongestant effects of various test substances, administered to the animals intravenously 10 minutes prior to the introduction of Compound 48/80. These substances include 0.9 percent aqueous saline (normal saline "Vehicle"), phenylpropanolamine hydrochloride at 1.0 mg/Kg of the free drug, thioperamide maleate at 10 mg/Kg of the free drug and chlorpheniramine maleate at 0.8 mg/Kg of the free drug, all of the drug compounds being in solution in 0.9 percent aqueous saline. […]

[1] = Blood pressure change from baseline in the cat experiments; format: in vivo, cats; conditions: Example 4, phenylpropanolamine 1 mg/Kg
Description: as §1
The known histamine releaser "Compound 48/80" (the condensation product of N-methyl-p-methoxyphenethylamine with formaldehyde, sold by Sigma Chemical Company, St. Louis, Mo., USA), as a 1.0 percent solution in 0.9 percent aqueous saline solution, is aerosolized into the air stream for 2 minutes to induce an increased NAR. This effect is used to study the decongestant effects of various test substances, administered to the animals intravenously 10 minutes prior to the introduction of Compound 48/80. These substances include 0.9 percent aqueous saline (normal saline "Vehicle"), phenylpropanolamine hydrochloride at 1.0 mg/Kg of the free drug, thioperamide maleate at 10 mg/Kg of the free drug and chlorpheniramine maleate at 0.8 mg/Kg of the free drug, all of the drug compounds being in solution in 0.9 percent aqueous saline.
Blood pressure data from the experiments of the preceding examples are examined, to determine the effects of certain congestion-preventing treatments.

histamine H3 receptor = molecular target: T1, histamine H3 receptor (Cavia porcellus, UniProt Q9JI35); assay: Guinea pig brain membrane assay, affinity for histamine H3 receptor binding sites (Korte et al.); conditions: Example 5
T1 construct: from tissue; host or cells: guinea pig brain membranes
Description: A particularly useful screening assay measures binding to sites in guinea pig brain membranes. This test is described in detail by Korte et al., "Characterization and Tissue Distribution of H3 Histamine Receptors in Guinea Pigs by N^α -Methylhistamine," in Biochemical and Biophysical Research Communications, Vol. 168, pages 979-986 (1990), and quantifies the displacement of bound radiolabeled N^α -methylhistamine from tissues by candidate compounds. Results are expressed as "Ki " values, in nanoMolar (nM) units, which values can be considered as being dissociation constants for the H3 antagonist on the H3 receptor system, or an index of antagonist affinity for the receptor. The present inventors have evidence that decongestant activity in their invention for a given H3 antagonist concentration can be predicted to increase as the Ki value obtained from the assay for an antagonist decreases. In general, Ki values less than about 200 nM are considered necessary for an agent to be useful as an H3 antagonist in the invention.
The affinity of various histamine H3 receptor antagonists for binding sites is determined by a guinea pig brain membrane assay, according to the procedure of Korte et al., Biochemical and Biophysical Research Communications, Vol. 168, pages 979-986 (1990).

[2] = Example 1, i.v. 10 min before Compound 48/80, phenylpropanolamine 1.0 mg/Kg, thioperamide 10 mg/Kg, chlorpheniramine 0.8 mg/Kg (free drug), vehicle 9.1, baseline 2.6

T1 sequence (Q9JI35 whole entry): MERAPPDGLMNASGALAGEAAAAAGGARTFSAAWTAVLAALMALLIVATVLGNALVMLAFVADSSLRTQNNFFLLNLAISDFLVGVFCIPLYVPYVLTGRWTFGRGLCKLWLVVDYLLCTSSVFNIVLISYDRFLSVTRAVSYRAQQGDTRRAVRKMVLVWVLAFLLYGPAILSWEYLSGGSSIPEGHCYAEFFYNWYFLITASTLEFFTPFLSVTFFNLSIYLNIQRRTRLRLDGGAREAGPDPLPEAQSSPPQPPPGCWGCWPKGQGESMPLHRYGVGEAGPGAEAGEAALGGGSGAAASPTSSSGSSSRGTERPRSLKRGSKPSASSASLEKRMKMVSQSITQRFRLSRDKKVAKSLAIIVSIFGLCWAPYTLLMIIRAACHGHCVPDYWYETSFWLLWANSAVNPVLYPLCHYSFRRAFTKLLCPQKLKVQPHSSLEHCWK

Question: For `CN(C)CCC(c1ccc(Cl)cc1)c1ccccn1` (centres unmarked) [Chlorpheniramine, chlorpheniramine], which “NAR (nasal airway resistance)” value (nasal airway resistance; [2]) is on record?
Answer: The value was 6.0 centimeters of water/liters pe.

Question: What does the source list for `NC(=NCc1ccc(Cl)cc1)SCCCc1cnc[nH]1` [Clobenpropit, clobenpropit]?
Answer: Prevention of nasal congestion (in words) (nasal airway resistance; Example 3, clobenpropit alone or with chlorpheniramine 0.8 mg/Kg): does not exhibit significant prevention of nasal congestion; NAR (nasal airway resistance) (nasal airway resistance; Example 3, i.v., clobenpropit 1.0 mg/Kg alone, vehicle 9.1): 5.5 centimeters of water/liters pe

Question: For `CCOC(=O)N1CCC(=C2c3ccc(Cl)cc3CCc3cccnc32)CC1` [Loratadine, loratadine], which “NAR (nasal airway resistance)” value (nasal airway resistance; Example 6, loratadine 3 mg/Kg, thioperamide 10 mg/Kg, vehicle 30% dimethylsulfoxide, 40% ethanol, 30% normal saline (vehicle 12.6)) is on record?
Answer: The value was 10.2 centimeters of water/liters pe.

Question: Which “Blood pressure, change from baseline” value ([1]; i.v., thioperamide 10 mg/Kg + CPA 0.8 mg/kg, vehicle -16) does the source give for `CC(N)C(O)c1ccccc1` (centres unmarked) [Phenylpropanolamine, phenylpropanolamine] here?
Answer: The value was “+31 mm Hg”.

Question: And the “Statistical difference of blood pressure change from vehicle” value [1]?
Answer: Its value is “statistically different from those for the vehicle”.

Question: And the “Effect on blood pressure (in words)” value ([1]; thioperamide 10 mg/Kg + CPA 0.8 mg/kg)?
Answer: The value was “significantly increases blood pressure”.

Question: And the “NAR (nasal airway resistance)” value (nasal airway resistance; [2])?
Answer: The value was 2.9 centimeters of water/liters pe.

Question: What about the “Statistical difference of NAR from vehicle” value (nasal airway resistance; Example 1, phenylpropanolamine 1.0 mg/Kg i.v.) of the same compound?
Answer: The value was “statistically different result from that for the vehicle”.

Question: What about the “Nasal congestion-preventing effect compared with thioperamide + chlorpheniramine combination” value (nasal airway resistance; Example 4 comment, phenylpropanolamine 1 mg/Kg) of the same compound?
Answer: The value was “approximately equivalent nasal congestion-preventing effect”.

Question: Which “NAR (nasal airway resistance)” value (nasal airway resistance; [2]) does the source give for `S=C(NC1CCCCC1)N1CCC(c2cnc[nH]2)CC1` [Thioperamide, thioperamide] here?
Answer: The value was 6.7 centimeters of water/liters pe.

Question: Which Ki (histamine H3 receptor) does the source give for `COc1ccc(C/C(=N\O)C(=O)NCCc2c[nH]cn2)cc1Br` [Verongamine, verongamine] here?
Answer: Its Ki is over 200 nM.

Question: What about the “Statistical difference of NAR from vehicle” value (nasal airway resistance; Example 5, verongamine 10 mg/Kg) of the same compound?
Answer: The value was “not statistically different from that for the vehicle”.

Question: And the “NAR (nasal airway resistance)” value (nasal airway resistance; Example 5, verongamine 10 mg/Kg, different vehicle (vehicle 7.8))?
Answer: The value was 7.3 centimeters of water/liters pe.
